In the supplement of paper PMC10933113:
Where a name gives a salt, the structure may show the parent alone. ± gives the uncertainty stated by the source.

Key:
[1] = tested on: cysteine peptide Ac-RFAACAA-COOH; assay: efficacy of cysteine peptide change (negative = depletion) (% activity); higher = less depletion; details: incubation time: 24 h
[2] = tested on: cysteine peptide Ac-RFAACAA-COOH; assay: AC50 of cysteine peptide concentration-response (direction given by sign of efficacy); higher = less potent; details: incubation time: 24 h
[3] = tested on: lysine peptide Ac-RFAAKAA-COOH; assay: efficacy of lysine peptide change (negative = depletion) (% activity); higher = less depletion; details: incubation time: 24 h
[4] = tested on: THP-1; assay: efficacy of IL-8 induction relative to DMSO (% activity); higher = stronger induction; details: exposure time: 18 h
[5] = tested on: KeratinoSens (HaCaT ARE-luciferase) cells; assay: efficacy of ARE luciferase induction relative to DMSO (% activity over DMSO); higher = stronger induction; details: exposure time: 24 h
[6] = tested on: KeratinoSens (HaCaT ARE-luciferase) cells; assay: AC50 of Nrf2/ARE luciferase induction; higher = less potent; details: exposure time: 24 h
[7] = tested on: KeratinoSens (HaCaT ARE-luciferase) cells; assay: cytotoxicity AC50 (CellTiter-Fluor viability); higher = less cytotoxic; details: exposure time: 24 h

SMILES | efficacy of cysteine peptide change [1] | AC50 [2] [µM] | efficacy of lysine peptide change [3] | efficacy of IL-8 induction [4] | efficacy of ARE luciferase induction [5] | AC50 of Nrf2/ARE luciferase induction [6] [µM] | cytotoxicity AC50 [7] [µM]
ClC1=C(Cl)C(Cl)(Cl)C(Cl)=C1Cl [Hexachlorocyclopentadiene] | -137 ± 8.4 | 30.4 ± 13 | -11.3 ± 2.7 | 83.1 ± 8.1 | 48.2 ± 5.1 | – | –
O=[N+]([O-])c1c(Cl)c(Cl)c(Cl)c(Cl)c1Cl [Pentachloronitrobenzene] | -3.67 ± 6.3 | – | 5.1 ± 8.8 | 12.2 ± 11 | 47.4 ± 32 | 42.1 | –
COc1cc(C(C)C)c2c(c1)S(=O)(=O)N(COc1cc(=O)n3cccc(OCCN4CCCCC4)c3n1)C2=O | 17.7 ± 15 | – | -2.72 ± 25 | 54.6 ± 30 | 509 ± 320 | 12.6 | –
COP(=S)(OC)Oc1nc(Cl)c(Cl)cc1Cl [Chlorpyrifos-methyl] | -104.3 ± 0.97 | 6.5 ± 1.8 | 32.7 ± 12 | 0 | 29.7 ± 29 | – | –
OCc1ccco1 [Furfuryl alcohol] | -74.1 ± 7.2 | 74.3 ± 13 | -37.2 ± 5.8 | 0 | 37.8 ± 37 | – | –
CCOP(=S)(OCC)Oc1nc(Cl)c(Cl)cc1Cl [Chlorpyrifos] | -97.5 ± 7.8 | 9.18 ± 2.6 | 26.7 ± 11 | 8.52 ± 1.5 | 32.7 ± 17 | – | –
Nc1ccc2ccccc2c1 [2-Naphthylamine] | -65.5 ± 4.2 | 0.53 ± 0.23 | -10.1 ± 12 | 5.33 ± 9.2 | 111 ± 32 | – | 70.8
COP(=S)(Oc1cc(Cl)c(Br)cc1Cl)c1ccccc1 (stereo not drawn) [Leptophos] | -94.8 ± 3.7 | 41.6 ± 5.3 | 3.37 ± 19 | 33.4 ± 20 | 21.4 ± 11 | – | 46.5 ± 3.1
CCOC(=O)CC(SP(=S)(OC)OC)C(=O)OCC (stereo not drawn) [Malathion] | -114 ± 8.5 | 3.05 ± 0.2 | 38.6 ± 20 | 1.28 ± 2.2 | 10.2 ± 27 | – | –
O=C(O)c1ccccc1C(=O)Nc1cccc2ccccc12 [Naptalam*] | -104 ± 4.3 | 4 ± 1.3 | 10.2 ± 26 | 7.99 ± 7 | 61.4 ± 78 | – | 25.1
CCOP(=S)(OCC)SC(CCl)N1C(=O)c2ccccc2C1=O (stereo not drawn) [Dialifor] | -101 ± 9.9 | 3.87 ± 0.66 | -69.5 ± 7.4 | 5.64 ± 12 | 63 ± 32 | – | 66.8 ± 15
NNCc1ccccc1 [BENZYLHYDRAZINE HYDROCHLORIDE] | -43 ± 5.2 | 35.6 ± 4.1 | – | 3.79 ± 6.6 | 50.8 ± 24 | – | –
ClC1=C(Cl)C2(Cl)C3C(Cl)C(Cl)CC3C1(Cl)C2(Cl)Cl (stereo not drawn) [Chlordane] | -56.1 ± 16 | 50.3 ± 5.8 | -2.38 ± 11 | 49.6 ± 10 | -18.6 ± 53 | – | 41.4 ± 2.8
N#CCC#N [Propanedinitrile] | -64.6 ± 10 | 72.9 ± 20 | 8.33 ± 14 | 0 | 31.6 ± 5.9 | – | –

Now from value to compound, other results behind:

efficacy of cysteine peptide change [1] | AC50 [2] [µM] | efficacy of lysine peptide change [3] | SMILES | efficacy of IL-8 induction [4] | efficacy of ARE luciferase induction [5] | AC50 of Nrf2/ARE luciferase induction [6] [µM] | cytotoxicity AC50 [7] [µM]
-117 ± 8.1 | 23 ± 9 | 19.2 ± 21 | CO[C@@H]1[C@H](OC(=O)/C=C/C=C/C=C/C=C/C(=O)O)CC[C@]2(CO2)[C@H]1[C@@]1(C)O[C@@H]1CC=C(C)C [Fumagillin] | 0 | -9.86 ± 16 | – | –
-75.7 ± 21 | 1.33 ± 0.83 | -80.7 ± 18 | O=C1c2cccc(O)c2C(=O)c2c(O)cc(CO)cc21 [Aloe-emodin] | -5.38 ± 9.3 | 35.9 ± 24 | – | –
3.66 ± 6.3 | – | -3.82 ± 16 | Cc1ccc(O)c(-n2nc3ccccc3n2)c1 [2-(2H-Benzotriazol-2-yl)-4-methylphenol] | 0 | 95.5 ± 93 | 22.4 | –
-101.7 ± 0.97 | 7.77 ± 3.2 | -11.4 ± 12 | Nc1ccc(Nc2ccccc2)cc1 [N-Phenyl-1,4-benzenediamine] | 5.67 ± 11 | 48.5 ± 28 | – | –
-26 ± 7.3 | – | 0.29 ± 19 | Cc1ccc2c(c1[N+](=O)[O-])C(=O)c1ccccc1C2=O [2-Methyl-1-nitroanthraquinone] | 12 ± 10 | 81.9 ± 8.7 | 34.8 | –
5 ± 8.7 | – | 67 ± 6.6 | O=C(NS(=O)(=O)/C=C/c1ccccc1)c1ccc(F)cc1Cl | 0 | 82.9 ± 22 | 38.7 | –
-110 ± 11 | 50.1 | 11.2 ± 11 | NC(=O)n1c(O)c(C(=O)c2cccs2)c2cc(Cl)ccc21 [Tenidap*] | 4.22 ± 7.3 | 19.7 ± 5.4 | – | 53.4 ± 15
-90.5 ± 15 | 4.03 ± 0.75 | -12.3 ± 2.6 | Clc1ccc2c(c1)Nc1ccccc1S2 [2-Chlorophenothiazine] | 7.79 ± 8 | 28.3 ± 36 | – | –
-97 ± 11 | 8.35 ± 4.5 | 62.9 ± 22 | O=[N+]([O-])c1ccc(O/N=C/c2cc(Br)c(O)c(Br)c2)c([N+](=O)[O-])c1 [Bromofenoxim] | 0 | 12.5 ± 12 | – | 34.2 ± 2.2
-77.2 ± 7.4 | 33.1 ± 20 | -3.52 ± 14 | Cc1ccc(N)cc1O [5-Amino-2-methylphenol] | 3.18 ± 5.5 | 59.5 ± 26 | – | –
-88.2 | 44.7 | 10.3 ± 18 | CC(C)(C)c1ccc(S)cc1 [4-tert-Butylbenzenethiol] | 16.3 ± 5.9 | 28 ± 17 | – | –
-99.7 ± 6.5 | 7.11 ± 0.82 | -0.37 ± 14 | C=CC(=O)OCCn1c(=O)n(CCOC(=O)C=C)c(=O)n(CCOC(=O)C=C)c1=O | 20.8 ± 5.9 | 47.2 ± 67 | – | 24.7 ± 9.8
-104 ± 23 | 41.1 ± 17 | -19.7 ± 2.9 | CC1=C(/C=C/C(C)=C\C=C\C(C)=C\C(=O)O)C(C)(C)CCC1 [9-cis Retinoic acid] | 4.41 ± 7.6 | 47.6 ± 16 | – | –
-109 ± 7.9 | 2.54 ± 0.48 | 28 ± 5.4 | O=C(CS)Nc1ccccc1 [Thioglycolic acid anilide] | 35.1 ± 9.2 | -15.9 ± 47 | – | –
-42.3 ± 2.6 | 10.1 ± 5.7 | -14 ± 5.3 | COC(=O)Nc1nc2ccc(C(=O)C3CC3)cc2[nH]1 [Cyclobendazole] | 24.9 ± 13 | 21.4 ± 9.4 | – | 3 ± 0.85
-71.2 ± 22 | 38.7 ± 6.6 | 3.09 ± 20 | CC1=C(/C=C/C(C)=C/C=C/C(C)=C/C=O)C(C)(C)CCC1 [13-cis-Retinal (Vitamin A aldehyde)] | 3.58 ± 6.2 | -8.45 ± 12 | – | –
-94.5 ± 8 | 3.18 ± 0.37 | -0.11 ± 21 | NC(=S)NC(N)=S [2,4-Dithiobiuret] | 15.5 ± 4.3 | 59.4 ± 25 | – | –
-76.1 ± 14 | 62.8 ± 38 | 21.2 ± 7.3 | CC(C)=CCC/C(C)=C\CO [(2Z)-3,7-Dimethylocta-2,6-dien-1-ol] | 3.59 ± 6.2 | 19 ± 27 | – | –
